Experimental data from ChEMBL document CHEMBL1145505, “Bisphosphonates target multiple sites in both cis- and trans-prenyltransferases” (Proc Natl Acad Sci U S A, 2007).
pIC50: −log10 of the molar value. Where “and” joins values, the source holds several entries; their conditions need not be identical. Identical values can stand only once.

Columns and labels:
[1] = Inhibition of Escherichia coli UPPS
[2] = Inhibition of Escherichia coli OPPS
[3] = Inhibition of Sulfolobus solfataricus HPPS; parameters: species or system Saccharolobus solfataricus

| SMILES | pIC50 [1] | pIC50 [2] | pIC50 [3] |
| --- | --- | --- | --- |
| O=P(O)(O)C(O)(CCc1ccc(-c2cccc3c2oc2ccccc23)cc1)P(=O)(O)O | 4.92 | – | – |
| O=P(O)(O)C(O)(Cc1ccc(-c2ccc(-c3ccccc3)cc2)cc1)P(=O)(O)O | 5.70 | – | – |
| O=P(O)(O)C(O)(Cc1ccccc1)P(=O)(O)O | 3.70 | – | – |
| O=P([O-])(O)C(C[n+]1ccc(-c2ccc(-c3ccccc3)cc2)cc1)P(=O)(O)O (configuration not stated) | 4.55 | – | – |
| O=P(O)(O)C1(P(=O)(O)O)CC(c2ccc(Cl)c(Cl)c2)=NO1 | 4.06 | – | – |
| O=P(O)(O)C(O)(Cc1cccnc1)P(=O)(O)O [RISEDRONIC ACID] | 3.18 | 7.42 | 7.05 |
| O=P(O)(O)C(O)(COc1cccc(-c2cccc(-c3ccccc3)c2)c1)P(=O)(O)O | – | 7.12 | 3.44 |
| O=P([O-])(O)C(C[n+]1cccc(-c2ccccc2-c2ccccc2)c1)P(=O)(O)O (configuration not stated) | 3.92 | – | – |
| O=P([O-])(O)C(O)(C[n+]1ccc(-c2cccc3c2oc2ccccc23)cc1)P(=O)(O)O (configuration not stated) | 4.89 | – | – |
| O=P(O)(O)C(O)(CCc1cccc(-c2ccccc2-c2ccccc2)c1)P(=O)(O)O | 5.51 | – | – |
| O=P([O-])(O)C(C[n+]1cccc(-c2ccc(-c3ccccc3)cc2)c1)P(=O)(O)O (configuration not stated) | 4.46 | – | – |
| CC(C)=CCC/C(C)=C/Cc1ccc[n+](CC(P(=O)([O-])O)P(=O)(O)O)c1 (configuration not stated) | 4.05 | – | – |
| O=P(O)(O)C(O)(c1cccc(-c2cccc(-c3ccccc3)c2)c1)P(=O)(O)O | 5.74 | – | – |
| O=P(O)(O)C(O)(Cc1cccc(-c2ccc(-c3ccccc3)cc2)c1)P(=O)(O)O | – | 3.06 | 5.57 |
| O=P(O)(O)C(O)(Cc1cccc(-c2cccc3c2oc2ccccc23)c1)P(=O)(O)O | – | 4.49 | 5.92 |
| O=P(O)(O)C(O)(Cc1ccc(-c2cccc(-c3ccccc3)c2)cc1)P(=O)(O)O | 6.00 | – | – |
| O=P(O)(O)C(O)(CCc1cccc(-c2ccc(-c3ccccc3)cc2)c1)P(=O)(O)O | 5.00 | – | – |
| O=P([O-])(O)C(O)(C[n+]1cccc(F)c1)P(=O)(O)O (configuration not stated) | 3.31 | – | – |
| O=P([O-])(O)C(C[n+]1cccc(-c2cccc3c2oc2ccccc23)c1)P(=O)(O)O (configuration not stated) | 4.47 | – | – |
| O=P(O)(O)C(O)(Cc1cccc(-c2cccc(-c3ccccc3)c2)c1)P(=O)(O)O | – | 6.37 | 6.34 |
| O=P(O)(O)C(O)(Cn1ccnc1)P(=O)(O)O [ZOLEDRONIC ACID] | – | 7.42 | 7.05 |
| O=P([O-])(O)C(C[n+]1cccc(-c2cccc(-c3ccccc3)c2)c1)P(=O)(O)O (configuration not stated) | 4.17 and 4.68 | – | – |
| O=P(O)(O)C(O)(CCc1cccc(-c2cccc(-c3ccccc3)c2)c1)P(=O)(O)O | 5.26 | – | – |
| O=P(O)(O)C(O)(Cc1cccc(-c2ccccc2)c1)P(=O)(O)O | 5.17 | – | – |
| O=P(O)(O)C(CCCc1ccc(-c2ccccc2)cc1)P(=O)(O)O | 4.16 | – | – |
| O=P([O-])(O)C(O)(C[n+]1cccc(-c2ccccc2)c1)P(=O)(O)O (configuration not stated) | 4.32 | – | – |
| O=P(O)(O)C(O)(Cc1cccc(-c2cccc(NS(=O)(=O)c3ccc4ccccc4c3)c2)c1)P(=O)(O)O | – | 5.27 | 6.38 |
| O=P(O)(O)C(O)(Cc1cnc2ccccn12)P(=O)(O)O [MINODRONIC ACID] | – | 5.68 | 7.30 |
